# Results reported in patent publication EP0888346B1, “CORALYNE ANALOGS AS TOPOISOMERASE INHIBITORS” (RUTGERS, THE STATE UNIVERSITY OF NEW JERSEY, priority 1996, dated 1997).
# “And” between values parts separate entries of the source, which are not always exact repeats. Equal values may be shown once.
# Experiments:
# human topoisomerase I = biological target: T1, human topoisomerase I (Homo sapiens, UniProt P11387); assay: Topo I cleavage assay (plasmid YEpG DNA); assay type: biochemical
# T1 construct: 15 amino acid vector-derived fusion (pET-11a leader); made in house; host or cells: E. coli BL21(DE3)
# T1 sequence (P11387 1-765): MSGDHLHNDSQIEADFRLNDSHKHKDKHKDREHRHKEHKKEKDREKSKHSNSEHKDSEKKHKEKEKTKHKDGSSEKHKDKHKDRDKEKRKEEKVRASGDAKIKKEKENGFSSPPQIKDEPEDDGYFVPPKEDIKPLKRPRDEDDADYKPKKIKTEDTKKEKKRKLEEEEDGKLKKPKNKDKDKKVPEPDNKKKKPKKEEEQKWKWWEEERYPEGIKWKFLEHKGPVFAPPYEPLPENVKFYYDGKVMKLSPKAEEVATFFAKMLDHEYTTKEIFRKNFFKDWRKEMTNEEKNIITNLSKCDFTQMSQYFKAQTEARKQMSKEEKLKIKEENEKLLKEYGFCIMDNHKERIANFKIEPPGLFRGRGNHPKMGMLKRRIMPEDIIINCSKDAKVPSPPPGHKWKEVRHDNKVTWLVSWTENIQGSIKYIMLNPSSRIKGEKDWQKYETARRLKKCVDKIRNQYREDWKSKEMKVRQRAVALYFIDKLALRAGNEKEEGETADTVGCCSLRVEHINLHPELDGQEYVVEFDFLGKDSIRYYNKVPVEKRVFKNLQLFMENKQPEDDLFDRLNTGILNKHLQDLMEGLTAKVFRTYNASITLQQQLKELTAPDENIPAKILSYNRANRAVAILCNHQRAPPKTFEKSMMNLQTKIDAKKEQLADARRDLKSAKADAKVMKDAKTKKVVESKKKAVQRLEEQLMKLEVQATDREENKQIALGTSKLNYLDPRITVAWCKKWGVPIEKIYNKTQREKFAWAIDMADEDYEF
# Description: To obtain large quantity of human topoisomerase I, the human topoisomerase I cDNA was cloned into the pET-11a vector, in which transcription of the cDNA is under the control of the inducible T7 promoter (Studier et al., Methods in Enzymol., Vol. 185:60-89, San Diego: Academic Press (1990)). Briefly, a 3.4 kb DNA fragment containing the entire coding sequence of human topoisomerase I and approximately 1 kb of untranslated region downstream of the stop codon was isolated from the plasmid YCpGAL1-hTOP1 (Bjornsti et al., Cancer Res. 49:6318-6323 (1989)) by cutting at the BamHI and EcoRI sites. The vector pET-11a was cut with the same restriction enzymes, dephosphorylated and ligated to the insert in the proper reading-frame downstream of the vector cloning site. The ligation mixture was used to transform E. coli, the correct clone pET1B was isolated (see figure 2A for the map) and its identity confirmed by restriction mapping. Since the translational start in pET is positioned at an upstream NdeI site, the expressed topoisomerase I has a 15 amino acid fusion at its N-terminus. pET1B was then transformed into E. coli BL21(DE3), and, upon induction with 0.4 mM IPTG for 1 hour, the bacterial lysate was analyzed by 10 % SDS-PAGE. Expression was confirmed by Western blotting using rabbit antibodies against human topoisomerase I. Isolation of the expressed protein was done by a simple procedure. Briefly, E. coli cells were lysed by repeated sonic bursts. The sonic extract was made in 1 M NaCl and 6% polyethylene glycol (PEG) to remove nucleic acids. The PEG supernatant was chromatographed directly on a hydroxyapatite column. Expressed human DNA topoisomerase I was eluted at the 0.6 M potassium phosphate step. The eluted enzyme was dialyzed against 50% glycerol, 30 mM potassium phosphate (pH 7.0), 1 mM dithiothreitol (DTT) and 0.1 mM EDTA and stored at -20°C.
# (§1) Cleavage assays for the recombinant topoisomerases I and calf thymus topoisomerases I and II were done as described (Liu et al., J. Biol. Chem. 258:15365-15370 (1983)). The plasmid YEpG DNA used for the cleavage assays was prepared and labeled at its 3'-end using the published procedures.
# [1] = system: calf thymus topoisomerase II; assay: Topo II cleavage assay (plasmid YEpG DNA); assay type: biochemical; settings: concentration relative to VM-26 = 1 producing the same cleavage on the plasmid DNA
# Description: The plasmid pET11a and the E. coli strain BL21(DE3) used for enzyme expression were purchased from Novagen. IPTG was purchased from Sigma. The ECL system used for the Western blotting analysis of bacterial lysates was from Amersham (UK). All the restriction enzymes and Vent polymerase were from New England Biolabs. Mammalian topoisomerase II was isolated from calf thymus glands according to the published procedure (Halligan et al., J. Biol. Chem. 260:2475-2482 (1985)). The single copy yeast plasmids YCpGAL1 expressing various topoisomerase I genes in JN2-134 yeast strain were a kind gift of Dr. M-A. Bjornsti (Thomas Jefferson University, Philadelphia, PA). All bacterial and yeast media were from Difco (Detroit, MI), while cell culture media were purchased from Gibco-BRL (Gaithersburg, MD).
# as §1
# [2] = system: human epidermoid carcinoma KB 3-1 cell line; assay: MTA cytotoxicity assay, epidermoid carcinoma cells; assay type: cell-based; settings: KB 3-1, 96 h, read-out: Cytotoxicity KB3-1
# Method: (§2) The results were plotted and the IC50 then measured.
# (§3) The coralyne analog 7c was tested for its effectiveness against glioblastoma cells. The assay used was similar to that described above for the RPMI-8402 cell line. The results are shown in table 2 below which compares the effect of Compound 7c against the leukemia cell line (RPMI 8402), epidermal carncinoma (KB3-1) and glioblastoma (SF-268): Table 2
# [3] = system: glioblastoma cell line SF-268; assay: MTA cytotoxicity assay, glioblastoma cells; assay type: cell-based; settings: Homo sapiens, SF-268, 96 h, read-out: Cytotoxicity SF-268
# Method: as §2, §3
smiles,measurement,setting,value
"CC[C@@]1(O)C(=O)OCc2c1cc1n(c2=O)Cc2cc3ccccc3nc2-1 [CPT, camptothecin, reference compound]","Topo I-mediated DNA cleavage (REC, Relative Effective Concentration)",human topoisomerase I; concentration relative to camptothecin (CPT) = 1 producing the same cleavage on the plasmid DNA,1
same,EC (total cleavage),human topoisomerase I; read-out: concentration giving total cleavage of DNA in the presence of topoisomerase I,0.29 µM and 0.1 µg/mL
same,"Topo II-mediated DNA cleavage (REC, Relative Effective Concentration)",[1],>1000
same,IC50,[2],4 ng/mL
same,IC50,[3],5 ng/mL
